# From patent US20160002204A1 (Board of Regents, The University of Texas System, priority 2014, published 2016)
# Assays:
# [1] = biological target: T1, GLS1 (purified recombinant human GAC) (Homo sapiens, UniProt O94925); assay: GLS1 enzymatic activity assay (dual-coupled, Amplex UltraRed/resorufin); type: biochemical
# T1 sequence (O94925 55-598 isoform O94925-3 limits assumed): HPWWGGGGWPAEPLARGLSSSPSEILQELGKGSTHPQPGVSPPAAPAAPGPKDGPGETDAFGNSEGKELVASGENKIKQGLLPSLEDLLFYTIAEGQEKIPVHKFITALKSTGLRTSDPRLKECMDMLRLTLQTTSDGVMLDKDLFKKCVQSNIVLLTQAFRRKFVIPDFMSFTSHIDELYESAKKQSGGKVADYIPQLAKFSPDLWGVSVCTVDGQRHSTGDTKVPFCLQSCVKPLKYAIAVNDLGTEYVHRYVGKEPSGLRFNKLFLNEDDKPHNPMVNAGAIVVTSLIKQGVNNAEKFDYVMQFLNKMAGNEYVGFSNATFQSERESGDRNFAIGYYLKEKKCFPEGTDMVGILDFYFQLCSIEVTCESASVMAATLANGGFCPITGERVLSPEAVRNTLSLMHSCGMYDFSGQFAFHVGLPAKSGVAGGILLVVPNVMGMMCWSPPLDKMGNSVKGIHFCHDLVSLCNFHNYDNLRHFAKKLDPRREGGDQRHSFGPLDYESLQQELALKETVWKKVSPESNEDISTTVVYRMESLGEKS
# Summary of the method: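 Recombinant human GAC (2 nM) preincubated with 50 mM potassium phosphate, then inhibitor (10 min each, RT); 1 mM glutamine, pH 7.4 Hepes buffer, 1% DMSO. Glutamate coupled via glutamate oxidase/HRP to resorufin (Ex 530/Em 590), kinetic or 20-min endpoint; IC50 by four-parameter logistic fit.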
# A549 cells = assay: A549 proliferation (viability) assay, Cell Titer Fluor, 72 hours; type: cell-based; conditions: Homo sapiens
# Summary of the method: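 A549 cells in RPMI 1640 with 10% dialyzed FBS were seeded at 1000 cells/well, grown 24 h, then exposed to compound (0.5% DMSO final) for 72 h at 37 °C, 5% CO2. Viability was read by Cell Titer Fluor fluorescence; EC50 from four-parameter logistic fit.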
SMILES,IC50 [1] [nM],EC50 (A549 cells) [nM]
"O=C(Cc1ccccc1)Nc1ccn(CCCCn2cc(C(=O)NCc3cccc(OC(F)(F)F)c3)nn2)c(=O)c1 [Example 33, 1-{4-[2-oxo-4-(2-phenylacetamido)-1,2-dihydropyridin-1-yl]butyl}-N-{[3-(trifluoromethoxy)phenyl]methyl}-1H-1,2,3-triazole-4-carboxamide]",< 100,100 to 500
"O=C(CC1CCCCC1)Nc1ccn(CCC(F)Cn2cc(C(=O)NCc3cc(C(F)(F)F)ccn3)nn2)c(=O)c1F (centres unmarked) [Example 258, 1-{4-[4-(2-cyclohexylacetamido)-3-fluoro-2-oxo-1,2-dihydropyridin-1-yl]-2-fluorobutyl}-N-{[4-(trifluoromethyl)pyridin-2-yl]methyl}-1H-1,2,3-triazole-4-carboxamide]",< 100,< 100
"O=C(Cc1cccc(OC(F)(F)F)c1)Nc1ccc(CCCCn2ccc(NC(=O)CO)nc2=O)nn1 [Example 113, 2-hydroxy-N-{2-oxo-1-[4-(6-{2-[3-(trifluoromethoxy)phenyl]acetamido}pyridazin-3-yl)butyl]-1,2-dihydropyrimidin-4-yl}acetamide]",< 100,500 to 5000
"O=C(Cc1cccc(OC(F)(F)F)c1)Nc1ccc(CCCCn2ccc(NC(=O)NC3CCCCC3)nc2=O)nn1 [Example 107, N-[6-(4-{4-[(cyclohexylcarbamoyl)amino]-2-oxo-1,2-dihydropyrimidin-1-yl}butyl)pyridazin-3-yl]-2-[3-(trifluoromethoxy)phenyl]acetamide]",< 100,500 to 5000
"Cc1ccc(CNC(=O)c2cn(CC(F)CCn3ccc(NC(=O)CC4CCSCC4)cc3=O)nn2)cn1 (centres unmarked) [Example 198, 1-(2-fluoro-4-{2-oxo-4-[2-(thian-4-yl)acetamido]-1,2-dihydropyridin-1-yl}butyl)-N-[(6-methylpyridin-3-yl)methyl]-1H-1,2,3-triazole-4-carboxamide]",< 100,100 to 500

# More lines, now with the values ahead:
IC50 [1] [nM],EC50 (A549 cells) [nM],SMILES
< 100,500 to 5000,"O=C(Cc1ccccc1)Nc1ccn(CC(F)CCn2cc(C(=O)NCc3cc(Br)ccn3)nn2)c(=O)c1 (centres unmarked) [Example 160, N-[(4-bromopyridin-2-yl)methyl]-1-{3-fluoro-4-[2-oxo-4-(2-phenylacetamido)-1,2-dihydropyridin-1-yl]butyl}-1H-1,2,3-triazole-4-carboxamide]"
< 100,< 100,"O=C(Cc1cccc(OC(F)(F)F)c1)Nc1ccn(CCCCc2nnc(C(=O)NCc3cccc(OC(F)(F)F)c3)s2)c(=O)c1 [Example 439, 5-[4-(2-oxo-4-{2-[3-(trifluoromethoxy)phenyl]acetamido}-1,2-dihydropyridin-1-yl)butyl]-N-{[3-(trifluoromethoxy)phenyl]methyl}-1,3,4-thiadiazole-2-carboxamide]"
< 100,< 100,"O=C(CC1CCCCC1)Nc1ccn(CCC(F)Cn2cc(C(=O)NCc3cccc(OC(F)(F)F)c3)nn2)c(=O)c1 (centres unmarked) [Example 175, 1-{4-[4-(2-cyclohexylacetamido)-2-oxo-1,2-dihydropyridin-1-yl]-2-fluorobutyl}-N-{[3-(trifluoromethoxy)phenyl]methyl}-1H-1,2,3-triazole-4-carboxamide]"
< 100,< 100,"CC1(C)CN(C(=O)C(=O)Nc2ccn(CCC(F)Cn3cc(C(=O)NCc4cccc(OC(F)(F)F)c4)nn3)c(=O)c2F)C1 (centres unmarked) [Example 428, 1-(4-{4-[2-(3,3-dimethylazetidin-1-yl)-2-oxoacetamido]-3-fluoro-2-oxo-1,2-dihydropyridin-1-yl}-2-fluorobutyl)-N-{[3-(trifluoromethoxy)phenyl]methyl}-1H-1,2,3-triazole-4-carboxamide]"
< 100,100 to 500,"O=C(Cc1ccccc1)Nc1ccn(CCC(F)Cn2cc(C(=O)NCc3ccc(C(F)(F)F)nc3)nn2)c(=O)c1F (centres unmarked) [Example 367, 1-{2-fluoro-4-[3-fluoro-2-oxo-4-(2-phenylacetamido)-1,2-dihydropyridin-1-yl]butyl}-N-{[6-(trifluoromethyl)pyridin-3-yl]methyl}-1H-1,2,3-triazole-4-carboxamide]"
